Test results from patent US9290467B2, “Cyclic amides” (Hoffmann-La Roche Inc., priority 2012, dated 2016).
pIC50: −log10 of the molar value.

test system: not given; test: not given; conditions: from C=CCCN1CCC[C@H]1C(=O)N[C@@H](Cc1ccc(OCC=C)c(Cl)c1)C(=O)OC; rcm bond; 16-membered ring; Grubbs II (0.3 eq)/pTsOH (2 eq, in AcOH); DCM; 2.64 mM; 50.0 °C

**Q.** For `COC(=O)[C@@H]1Cc2ccc(c(Cl)c2)OC/C=C/CCN2CCCC2C(=O)N1` (stereo partly shown), which ring closure, isolated yield is on record?
**A.** 87%

same assay, conditions: from C=CCOc1ccc(C[C@H](NC(=O)c2cc(Br)ccc2OCC=C)C(=O)NC2(C#N)CC2)cc1Cl; rcm bond; 16-membered ring; Grubbs II (0.3 eq); DCM; 2.15 mM; 50.0 °C

**Q.** For `N#CC1(NC(=O)[C@@H]2Cc3ccc(c(Cl)c3)OCC=CCOc3ccc(Br)cc3C(=O)N2)CC1`, which ring closure, isolated yield is on record?
**A.** 53%

same assay, conditions: from C=CCOc1ccc(C[C@H](NC(=O)c2ccccc2OCC=C)C(=O)OC)cc1Cl; rcm bond; 16-membered ring; Grubbs II (0.3 eq); DCM; 2.76 mM; 50.0 °C

**Q.** For `COC(=O)[C@@H]1Cc2ccc(c(Cl)c2)OC/C=C/COc2ccccc2C(=O)N1`, which ring closure, isolated yield is on record?
**A.** 47%

biological target: Cathepsin L (Homo sapiens (Human), UniProt P07711); test: Cathepsin enzyme inhibition assay (fluorogenic peptide substrate Z-Val-Val-Arg-AMC); format: biochemical; conditions: enzyme 1 nM, substrate 20 μM, pH 6.5
Sequence (P07711 114-333): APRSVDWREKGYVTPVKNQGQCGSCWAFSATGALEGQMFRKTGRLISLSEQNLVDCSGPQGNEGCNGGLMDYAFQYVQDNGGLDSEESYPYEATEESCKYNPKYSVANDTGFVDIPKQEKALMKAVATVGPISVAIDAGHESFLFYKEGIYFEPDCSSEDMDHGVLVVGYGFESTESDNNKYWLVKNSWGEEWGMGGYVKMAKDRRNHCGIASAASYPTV
Experimental: Enzyme activity is measured by observing the increase in fluorescence intensity caused by cleavage of a peptide substrate containing a fluorophore whose emission is quenched in the intact peptide.
Assay buffer: 100 mM potassium phosphate pH 6.5, EDTA-Na 5 mM, Triton X-100 0.001%, DDT 5 mM.
Enzymes (all at 1 nM): human and mouse Cathepsin S, Cat K, Cat B, Cat L
Substrate (20 μM): Z-Val-Val-Arg-AMC, except for Cat K which uses Z-Leu-Arg-AMC (both from Bachem).
AMC=7-Amino-4-Methyl-Coumarin.
Excitation 360 nm, Emission 465 nm.
Enzyme is added to the substance dilutions in 96-well microtitre plates and the reaction is started with substrate. […] IC50 are calculated by standard methods. The results are expressed in μM in the following table.

**Q.** With `N#CC1(NC(=O)[C@@H]2Cc3ccc(c(Cl)c3)OC/C=C/CNc3ccccc3C(=O)N2)CC1` [Example 21, (E)-(S)-19-Chloro-5-oxo-17-oxa-4,12-diaza-tricyclo[16.2.2.0*6,11*]docosa-1(21),6,8,10,14,18(22),19-heptaene-3-carboxylic acid (1-cyano-cyclopropyl)-amide] as the compound, how does the pIC50 read?
**A.** 7.27

**Q.** With `COc1ccc2c(c1)C(=O)N[C@H](C(=O)NC1(C#N)CC1)Cc1ccc(c(Cl)c1)OC/C=C/CO2` [Example 16, (E)-(S)-19-Chloro-8-methoxy-5-oxo-12,17-dioxa-4-aza-tricyclo[16.2.2.0*6,11*]docosa-1(21),6,8,10,14,18(22),19-heptaene-3-carboxylic acid (1-cyano-cyclopropyl)-amide] as the compound, how does the pIC50 read?
**A.** 7.94

**Q.** With `N#CC1(NC(=O)[C@@H]2Cc3ccc(c(Cl)c3)OCCCCOc3cc4c(cc3C(=O)N2)CCCC4)CC1` [Example 29, (12S)-22-chloro-N-(1-cyanocyclopropyl)-14-oxo-2,3,4,5,11,12,13,14,16,17,18,19-dodecahydro-7,10-ethenonaphtho[2,3-b][1,12,5]dioxazacyclohexadecine-12-carboxamide] as the compound, how does the pIC50 read?
**A.** 7.89

**Q.** With `N#CC1(NC(=O)[C@@H]2Cc3ccc(c(Cl)c3)OC/C=C/CCN3CCCC3C(=O)N2)CC1` (mixture of isomers) [Example 12, (E)-(S)-18-Chloro-5-oxo-16-oxa-4,10-diaza-tricyclo[15.2.2.0*6,10*]henicosa-1(20),13,17(21),18-tetraene-3-carboxylic acid (1-cyano-cyclopropyl)-amide] as the compound, how does the pIC50 read?
**A.** 6.06

**Q.** With `N#CC1(NC(=O)[C@@H]2Cc3ccc(cc3)OC/C=C/CCc3ccccc3C(=O)N2)CC1` [Example 3, (E)-(S)-5-Oxo-17-oxa-4-aza-tricyclo[16.2.2.0%6,11&]docosa-1(21),6,8,10,14,18(22),19-heptaene-3-carboxylic acid (1-cyano-cyclopropyl)-amide] as the compound, how does the pIC50 read?
**A.** 7.11

**Q.** With `N#CC1(NC(=O)[C@@H]2Cc3ccc(c(Cl)c3)OCCCCOc3cc(Cl)ccc3C(=O)N2)CC1` [Example 36, (S)-9,19-Dichloro-5-oxo-12,17-dioxa-4-aza-tricyclo[16.2.2.0*6,11*]docosa-1(21),6,8,10,18(22),19-hexaene-3-carboxylic acid (1-cyano-cyclopropyl)-amide] as the compound, how does the pIC50 read?
**A.** 7.30

**Q.** With `N#CC1(NC(=O)[C@@H]2Cc3ccc(c(I)c3)OCCCCOc3ccc(Cl)cc3C(=O)N2)CC1` [Example 31, (S)-8-Chloro-19-iodo-5-oxo-12,17-dioxa-4-aza-tricyclo[16.2.2.0*6,11*]docosa-1(21),6(11),7,9,18(22),19-hexaene-3-carboxylic acid (1-cyano-cyclopropyl)-amide] as the compound, how does the pIC50 read?
**A.** 7.92

**Q.** With `N#CC1(NC(=O)[C@@H]2Cc3ccc(c(Cl)c3)OC/C=C/COc3ccccc3C(=O)N2)CC1` [Example 4, (E)-(S)-19-Chloro-5-oxo-12,17-dioxa-4-aza-tricyclo[16.2.2.0*6,11*]docosa-1(21),6(11),7,9,14,18(22),19-heptaene-3-carboxylic acid (1-cyano-cyclopropyl)-amide] as the compound, how does the pIC50 read?
**A.** 7.86

**Q.** With `N#CC1(NC(=O)[C@@H]2Cc3ccc(c(Cl)c3)OC/C=C/COc3ccc(F)c(F)c3C(=O)N2)CC1` [Example 45, (E)-(S)-19-Chloro-7,8-difluoro-5-oxo-12,17-dioxa-4-aza-tricyclo[16.2.2.0*6,11*]docosa-1(21),6,8,10,14,18(22),19-heptaene-3-carboxylic acid (1-cyano-cyclopropyl)-amide] as the compound, how does the pIC50 read?
**A.** 8.37

**Q.** With `N#CC1(NC(=O)[C@@H]2Cc3ccc(c(I)c3)OC/C=C/COc3ccccc3C(=O)N2)CC1` [Example 25, (E)-(S)-19-Iodo-5-oxo-12,17-dioxa-4-aza-tricyclo[16.2.2.0*6,11*]docosa-1(21),6,8,10,14,18(22),19-heptaene-3-carboxylic acid (1-cyano-cyclopropyl)-amide, stereoaxis R] as the compound, how does the pIC50 read?
**A.** 6.63

**Q.** With `N#CC1(NC(=O)[C@@H]2Cc3ccc(c(Cl)c3)OC/C=C/COc3c(F)cc(F)cc3C(=O)N2)CC1` [Example 44, (E-Z)—(S)-19-Chloro-8,10-difluoro-5-oxo-12,17-dioxa-4-aza-tricyclo[16.2.2.0*6,11*]docosa-1(21),6,8,10,14,18(22),19-heptaene-3-carboxylic acid (1-cyano-cyclopropyl)-amide] as the compound, how does the pIC50 read?
**A.** 8.04

**Q.** With `N#CC1(NC(=O)[C@@H]2Cc3ccc(c(Cl)c3)OCCCCOc3ccc(C4CNC4)cc3C(=O)N2)CC1` [Example 43, (S)-8-Azetidin-3-yl-19-chloro-5-oxo-12,17-dioxa-4-aza-tricyclo[16.2.2.0*6,11*]docosa-1(21),6,8,10,18(22),19-hexaene-3-carboxylic acid (1-cyano-cyclopropyl)-amide] as the compound, how does the pIC50 read?
**A.** 8.51

**Q.** With `N#CC1(NC(=O)[C@@H]2Cc3ccc(c(Cl)c3)OC/C=C/COc3cc(Cl)ccc3C(=O)N2)CC1` [Example 33, (E)-(S)-9,19-Dichloro-5-oxo-12,17-dioxa-4-aza-tricyclo[16.2.2.0*6,11*]docosa-1(21),6,8,10,14,18(22),19-heptaene-3-carboxylic acid (1-cyano-cyclopropyl)-amide] as the compound, how does the pIC50 read?
**A.** 7.14

**Q.** With `N#CC1(NC(=O)[C@@H]2Cc3ccc(c(I)c3)OC/C=C/COc3ccc(Cl)cc3C(=O)N2)CC1` [Example 28, (E)-(S)-8-Chloro-19-iodo-5-oxo-12,17-dioxa-4-aza-tricyclo[16.2.2.0*6,11*]docosa-1(21),6,8,10,14,18(22),19-heptaene-3-carboxylic acid (1-cyano-cyclopropyl)-amide] as the compound, how does the pIC50 read?
**A.** 7.96

**Q.** With `N#CC1(NC(=O)[C@@H]2Cc3ccc(c(Cl)c3)OCCCCOc3ccc(F)c(F)c3C(=O)N2)CC1` [Example 50, (S)-19-Chloro-7,8-difluoro-5-oxo-12,17-dioxa-4-aza-tricyclo[16.2.2.0*6,11*]docosa-1(21),6,8,10,18(22),19-hexaene-3-carboxylic acid (1-cyano-cyclopropyl)-amide] as the compound, how does the pIC50 read?
**A.** 7.87

**Q.** With `N#CC1(NC(=O)[C@@H]2Cc3ccc(c(Cl)c3)OCCCCOc3ccccc3C(=O)N2)CC1` [Example 7, (S)-19-Chloro-5-oxo-12,17-dioxa-4-aza-tricyclo[16.2.2.0*6,11*]docosa-1(21),6,8,10,18(22),19-hexaene-3-carboxylic acid (1-cyano-cyclopropyl)-amide] as the compound, how does the pIC50 read?
**A.** 7.02

**Q.** With `CC(C)(C)OC(=O)N1CC(c2ccc3c(c2)C(=O)N[C@H](C(=O)NC2(C#N)CC2)Cc2ccc(c(Cl)c2)OC/C=C/CO3)C1` [Example 39, 3-[(E)-(S)-19-Chloro-3-(1-cyano-cyclopropylcarbamoyl)-5-oxo-12,17-dioxa-4-aza-tricyclo[16.2.2.0*6,11*]docosa-1(21),6,8,10,14,18(22),19-heptaen-8-yl]-azetidine-1-carboxylic acid tert-butyl ester] as the compound, how does the pIC50 read?
**A.** 7.58

**Q.** With `N#Cc1ccc2c(c1)C(=O)N[C@H](C(=O)NC1(C#N)CC1)Cc1ccc(c(Cl)c1)OCCCCO2` [Example 49, (S)-19-Chloro-8-cyano-5-oxo-12,17-dioxa-4-aza-tricyclo[16.2.2.0*6,11*]docosa-1(21),6,8,10,18(22),19-hexaene-3-carboxylic acid (1-cyano-cyclopropyl)-amide] as the compound, how does the pIC50 read?
**A.** 7.74

**Q.** With `COc1ccc2c(c1)C(=O)N[C@H](C(=O)NC1(C#N)CC1)Cc1ccc(c(Cl)c1)OCCCCO2` [Example 17, (S)-19-Chloro-8-methoxy-5-oxo-12,17-dioxa-4-aza-tricyclo[16.2.2.0*6,11*]docosa-1(21),6,8,10,18(22),19-hexaene-3-carboxylic acid (1-cyano-cyclopropyl)-amide] as the compound, how does the pIC50 read?
**A.** 7.98

**Q.** With `N#CC1(NC(=O)[C@@H]2Cc3ccc(c(Cl)c3)OC/C=C/COc3ccc(Cl)cc3C(=O)N2)CC1` [Example 10, (E)-(S)-8,19-Dichloro-5-oxo-12,17-dioxa-4-aza-tricyclo[16.2.2.0*6,11*]docosa-1(21),6,8,10,14,18(22),19-heptaene-3-carboxylic acid (1-cyano-cyclopropyl)-amide] as the compound, how does the pIC50 read?
**A.** 7.99

**Q.** With `N#CC1(NC(=O)[C@@H]2Cc3ccc(c(Cl)c3)OC/C=C/COc3ccc(F)cc3C(=O)N2)CC1` [Example 32, (E)-(S)-19-Chloro-8-fluoro-5-oxo-12,17-dioxa-4-aza-tricyclo[16.2.2.0*6,11*]docosa-1(21),6,8,10,14,18(22),19-heptaene-3-carboxylic acid (1-cyano-cyclopropyl)-amide] as the compound, how does the pIC50 read?
**A.** 7.80

**Q.** With `CC(C)(C)OC(=O)N1CC(c2ccc3c(c2)C(=O)N[C@H](C(=O)NC2(C#N)CC2)Cc2ccc(c(Cl)c2)OCCCCO3)C1` [Example 42, 3-[(S)-19-Chloro-3-(1-cyano-cyclopropylcarbamoyl)-5-oxo-12,17-dioxa-4-aza-tricyclo[16.2.2.0*6,11*]docosa-1(21),6,8,10,18(22),19-hexaen-8-yl]-azetidine-1-carboxylic acid tert-butyl ester] as the compound, how does the pIC50 read?
**A.** 7.59
